Values of other authors as cited in patent US20100004582A1, “Wide-Area Parasystemic Treatment of Skin Related Conditions” (PANTEC BIOSOLUTIONS AG, priority 2006, published 2010).

Tested on: psoriasis
Conditions: conventional efalizumab treatment, not via porated skin

efalizumab
patients in whom treatment attenuated the disease: 22-28 % of patients
